According to publication PMC7749516, “Safety and nonclinical and clinical pharmacokinetics of PC945, a novel inhaled triazole antifungal agent” (Pharmacology Research & Perspectives, 2020):
Values joined by “and” are separate entries in the source; they are usually repeats but may differ in a detail not shown here. Equal entries are not always repeated.

Experiments:
A. fumigatus infection = test system: A. fumigatus infection; design: method as in PMID 31263150; conditions: in vitro human alveolus bilayer model; cited from earlier work
[1] = First-in-human safety and tolerability (adverse events, spirometry); format: in vivo; conditions: for No. of subjects with treatment‐emergent adverse events attributed to study drug / Subjects with drug-related adverse event: Cough / Subjects with drug-related adverse event: Diarrhea / Subjects with drug-related adverse event: Dizziness / Subjects with drug-related adverse event: Fatigue / Subjects with drug-related adverse event: Feces soft / Subjects with drug-related adverse event: Headache / Subjects with drug-related adverse event: Lethargy / Subjects with drug-related adverse event: Muscle spasms / Subjects with drug-related adverse event: Nausea / Subjects with drug-related adverse event: Productive cough / Subjects with drug-related adverse event: Throat tightness: N = 6
Experimental: This PC945 first‐in‐human clinical trial (ClinicalTrials.gov Identifier: NCT02715570) was a two‐part randomized, placebo‐controlled study to assess the safety and tolerability of PC945 in both healthy subjects and subjects with mild asthma, conducted at Parexel Early Phase Clinical Unit (Harrow, UK). The study was considered single‐blind as the appearance of active and placebo doses were different, however, it was conducted in a double‐blind manner (employing separate dosing and assessment teams).
(§1) Part one consisted of a single dose escalation study (Cohort 1) and a repeat dose study (Cohort 2) of inhaled PC945 in healthy subjects. Part two comprised a single dose study of inhaled PC945 in subjects with mild asthma (Cohort 3). The doses selected were predicted to achieve target lung concentrations above the IC90/MIC90 for A. fumigatus (based on data from a range of in vitro and in vivo systems) throughout a 24‐hour period and with a suitable safety margin based on animal toxicology data.
Safety was evaluated based on assessments of adverse events, physical examination, vital signs, 12‐lead electrocardiogram, spirometry and clinical laboratory tests. The verbatim terms used to identify adverse events were coded using the Medical Dictionary for Regulatory Activities (version 20.1). All adverse events were mapped to system organ class and preferred term.
Spirometry parameters (FEV1 and FVC) were measured in all subjects to evaluate the local tolerability and potential for bronchospasm of PC945 in accordance with American Thoracic Society/European Respiratory Society guidelines. Predicted values were calculated using National Health and Nutrition Examination Survey reference equations. ^18 , ^19

[2] = Rat lung tissue concentration after 14 days of inhaled dosing; format: in vivo, rats (Han Wistar); conditions: for Lung concentration: lungs ~22 hours after final dose (Day 15)
Experimental: Portions of rat lung tissue were homogenized in methanol:water (50:50; 15 mL for 1 g tissue). PC945 concentrations in tissue homogenates were analyzed using LC‐MS/MS. A control rat lung sample (B&K Universal Ltd, Hull, UK) was used as standards and quality control.

[3] = Clinical pharmacokinetics, repeat inhaled dose in healthy subjects (Cohort 2); format: in vivo, human
Description: as §1
Nine healthy subjects (four males and five females; mean age: 33.2 years, mean weight: 66.5 kg, mean BMI: 23.53 kg/m^2) whose forced expiratory volume over 1 second (FEV1) and forced vital capacity (FVC) were ≥80% of predicted values with an FEV1/FVC ratio >0.7, received once daily doses of PC945 5 mg or placebo for 7 days (Cohort 2, PC945:placebo = 2:1).
Serial blood samples were collected to determine plasma PC945 concentrations. For the single dose study in healthy subjects and in subjects with mild asthma, blood samples were collected predose and at 0.25, 0.5, 1, 2, 4, 6, 8, 24, 30, and 48 hours postend of inhalation and at the follow‐up visit. For the repeat dose study, blood samples were collected (a) predose and at 0.25, 0.5, 1, 2, 4, 6, 8, 10, 12, and 24 hours postend of inhalation on Days 1 and 7, and 30 and 48 hours on Day 7; (b) predose on Days 5 and 6; (c) at the follow‐up visit.
Attainment of steady state was assessed by visual inspection of the predose plots during the 7‐day treatment period in human subjects.

[4] = Cohort 1 healthy, single dose 0.5 mg
[5] = Cohort 1 healthy, single dose 2 mg
[6] = Cohort 1 healthy, single dose 5 mg
[7] = Cohort 1 healthy, single dose 10 mg
[8] = Cohort 2 healthy, 5 mg once daily for 7 days
[9] = Cohort 3 mild asthma, single dose 5 mg
[10] = healthy subjects, 5 mg once daily, Day 1, geometric mean (CV%)
[11] = healthy subjects, 5 mg once daily, Day 7, geometric mean (CV%)

SMILES: Cc1cc(N2CCN(c3ccc(C(=O)Nc4ccc(F)cc4)cc3)CC2)ccc1OC[C@@H]1CO[C@@](Cn2cncn2)(c2ccc(F)cc2F)C1 [PC945]
- Effect on A. fumigatus infection (A. fumigatus infection): inhibit A. fumigatus infection
- No. of subjects with treatment‐emergent adverse events attributed to study drug [1, 4]: 1 (16.67) n (%)
- Subjects with drug-related adverse event: Cough [1, 4]: 0 n (%)
- Subjects with drug-related adverse event: Diarrhea [1, 4]: 0 n (%)
- Subjects with drug-related adverse event: Dizziness [1, 4]: 0 n (%)
- Subjects with drug-related adverse event: Fatigue [1, 4]: 1 (16.67) n (%)
- Subjects with drug-related adverse event: Feces soft [1, 4]: 0 n (%)
- Subjects with drug-related adverse event: Headache [1, 4]: 0 n (%)
- Subjects with drug-related adverse event: Lethargy [1, 4]: 0 n (%)
- Subjects with drug-related adverse event: Muscle spasms [1, 4]: 0 n (%)
- Subjects with drug-related adverse event: Nausea [1, 4]: 0 n (%)
- Subjects with drug-related adverse event: Productive cough [1, 4]: 0 n (%)
- Subjects with drug-related adverse event: Throat tightness [1, 4]: 0 n (%)
- No. of subjects with treatment‐emergent adverse events attributed to study drug [1, 5]: 0 n (%)
- Subjects with drug-related adverse event: Cough [1, 5]: 0 n (%)
- Subjects with drug-related adverse event: Diarrhea [1, 5]: 0 n (%)
- Subjects with drug-related adverse event: Dizziness [1, 5]: 0 n (%)
- Subjects with drug-related adverse event: Fatigue [1, 5]: 0 n (%)
- Subjects with drug-related adverse event: Feces soft [1, 5]: 0 n (%)
- Subjects with drug-related adverse event: Headache [1, 5]: 0 n (%)
- Subjects with drug-related adverse event: Lethargy [1, 5]: 0 n (%)
- Subjects with drug-related adverse event: Muscle spasms [1, 5]: 0 n (%)
- Subjects with drug-related adverse event: Nausea [1, 5]: 0 n (%)
- Subjects with drug-related adverse event: Productive cough [1, 5]: 0 n (%)
- Subjects with drug-related adverse event: Throat tightness [1, 5]: 0 n (%)
- No. of subjects with treatment‐emergent adverse events attributed to study drug [1, 6]: 2 (33.33) n (%)
- Subjects with drug-related adverse event: Cough [1, 6]: 0 n (%)
- Subjects with drug-related adverse event: Diarrhea [1, 6]: 0 n (%)
- Subjects with drug-related adverse event: Dizziness [1, 6]: 1 (16.67) n (%)
- Subjects with drug-related adverse event: Fatigue [1, 6]: 0 n (%)
- Subjects with drug-related adverse event: Feces soft [1, 6]: 1 (16.67) n (%)
- Subjects with drug-related adverse event: Headache [1, 6]: 1 (16.67) n (%)
- Subjects with drug-related adverse event: Lethargy [1, 6]: 1 (16.67) n (%)
- Subjects with drug-related adverse event: Muscle spasms [1, 6]: 1 (16.67) n (%)
- Subjects with drug-related adverse event: Nausea [1, 6]: 1 (16.67) n (%)
- Subjects with drug-related adverse event: Productive cough [1, 6]: 0 n (%)
- Subjects with drug-related adverse event: Throat tightness [1, 6]: 0 n (%)
- No. of subjects with treatment‐emergent adverse events attributed to study drug [1, 7]: 2 (33.33) n (%)
- Subjects with drug-related adverse event: Cough [1, 7]: 0 n (%)
- Subjects with drug-related adverse event: Diarrhea [1, 7]: 1 (16.67) n (%)
- Subjects with drug-related adverse event: Dizziness [1, 7]: 1 (16.67) n (%)
- Subjects with drug-related adverse event: Fatigue [1, 7]: 0 n (%)
- Subjects with drug-related adverse event: Feces soft [1, 7]: 0 n (%)
- Subjects with drug-related adverse event: Headache [1, 7]: 1 (16.67) n (%)
- Subjects with drug-related adverse event: Lethargy [1, 7]: 0 n (%)
- Subjects with drug-related adverse event: Muscle spasms [1, 7]: 0 n (%)
- Subjects with drug-related adverse event: Nausea [1, 7]: 1 (16.67) n (%)
- Subjects with drug-related adverse event: Productive cough [1, 7]: 0 n (%)
- Subjects with drug-related adverse event: Throat tightness [1, 7]: 0 n (%)
- No. of subjects with treatment‐emergent adverse events attributed to study drug [1, 8]: 2 (33.33) n (%)
- Subjects with drug-related adverse event: Cough [1, 8]: 0 n (%)
- Subjects with drug-related adverse event: Diarrhea [1, 8]: 0 n (%)
- Subjects with drug-related adverse event: Dizziness [1, 8]: 0 n (%)
- Subjects with drug-related adverse event: Fatigue [1, 8]: 0 n (%)
- Subjects with drug-related adverse event: Feces soft [1, 8]: 0 n (%)
- Subjects with drug-related adverse event: Headache [1, 8]: 1 (16.67) n (%)
- Subjects with drug-related adverse event: Lethargy [1, 8]: 0 n (%)
- Subjects with drug-related adverse event: Muscle spasms [1, 8]: 0 n (%)
- Subjects with drug-related adverse event: Nausea [1, 8]: 1 (16.67) n (%)
- Subjects with drug-related adverse event: Productive cough [1, 8]: 0 n (%)
- Subjects with drug-related adverse event: Throat tightness [1, 8]: 0 n (%)
- No. of subjects with treatment‐emergent adverse events attributed to study drug [1, 9]: 0 n (%)
- Subjects with drug-related adverse event: Cough [1, 9]: 0 n (%)
- Subjects with drug-related adverse event: Diarrhea [1, 9]: 0 n (%)
- Subjects with drug-related adverse event: Dizziness [1, 9]: 0 n (%)
- Subjects with drug-related adverse event: Fatigue [1, 9]: 0 n (%)
- Subjects with drug-related adverse event: Feces soft [1, 9]: 0 n (%)
- Subjects with drug-related adverse event: Headache [1, 9]: 0 n (%)
- Subjects with drug-related adverse event: Lethargy [1, 9]: 0 n (%)
- Subjects with drug-related adverse event: Muscle spasms [1, 9]: 0 n (%)
- Subjects with drug-related adverse event: Nausea [1, 9]: 0 n (%)
- Subjects with drug-related adverse event: Productive cough [1, 9]: 0 n (%)
- Subjects with drug-related adverse event: Throat tightness [1, 9]: 0 n (%)
- Deaths or serious adverse events ([1]; all cohorts): no deaths or serious adverse events
- Changes in lung function ([1]; healthy subjects): No clinically significant changes in lung function
- Tolerability ([1]; single doses up to 10 mg and 5 mg daily for 7 days in healthy subjects, single 5 mg in mild asthma): well tolerated
- Acute bronchospasm or significant change in lung function (>15% change from baseline) ([1]; subjects with mild asthma, single 5 mg): no evidence of acute bronchospasm or significant change in lung function
- Irritancy ([1]; subjects with mild asthma, single dose 5 mg): No evidence of irritancy
- Ratio lung tissue concentration (Day 15)/plasma C max (Day 14) ([2]; female rats, 2.0 mg/kg/day): 2610
- Lung concentration ([2]; female rats, 2.0 mg/kg/day for 14 days): 50 100 ng/mL
- Ratio lung tissue concentration (Day 15)/plasma C max (Day 14) ([2]; female rats, 7.1 mg/kg/day): 2740
- Lung concentration ([2]; female rats, 7.1 mg/kg/day for 14 days): 138 000 ng/mL
- Ratio lung tissue concentration (Day 15)/plasma C max (Day 14) ([2]; female rats, 16.6 mg/kg/day): 2340
- Lung concentration ([2]; female rats, 16.6 mg/kg/day for 14 days): 216 000 ng/mL
- Mean lung:plasma ratio ([2]; male rats): ~ 4300 fold
- Ratio lung tissue concentration (Day 15)/plasma C max (Day 14) ([2]; male rats, 2.0 mg/kg/day): 3450
- Lung concentration ([2]; male rats, 2.0 mg/kg/day for 14 days): 42 400 ng/mL
- Ratio lung tissue concentration (Day 15)/plasma C max (Day 14) ([2]; male rats, 7.1 mg/kg/day): 5020
- Lung concentration ([2]; male rats, 7.1 mg/kg/day for 14 days): 119 000 ng/mL
- Ratio lung tissue concentration (Day 15)/plasma C max (Day 14) ([2]; male rats, 16.6 mg/kg/day): 4280
- Lung concentration ([2]; male rats, 16.6 mg/kg/day for 14 days): 329 000 ng/mL
- Lung concentration relative to plasma ([2]; rats, all dose levels, after 14‐day inhaled dosing): > 2000 fold
- AUC0–24h [3, 10]: 6510 (60.0) pg*h/mL
- C max [3, 10]: 462 (68.0) pg/mL
- t max ([3]; healthy subjects, 5 mg once daily, Day 1, median (range)): 2 h and 2.10 (2.08‐4.08) h
- time of C max postend of inhalation ([3]; healthy subjects, 5 mg once daily, Day 7): 45 min
- C max [3, 11]: 951 (58.7) pg/mL
- t ½ [3, 11]: 132 (22.7) h
- t max ([3]; healthy subjects, 5 mg once daily, Day 7, median (range)): 0.745 (0.240‐10.1) h
- Cmax ([3]; human, inhaled doses, read-out: C max values obtained with inhaled doses): < 2 nM
- Predicted time to steady state ([3]; once daily dosing, human): approximately 5 weeks
